Data taken from patent publication EP4785943A1, “SOLID DISPERSION, PHARMACEUTICAL COMPOSITION, AND PREPARATION METHOD AND USE THEREFOR” (4B Technologies (Beijing) Co., Limited, priority 2023, dated 2025).
Converted amounts (≈) assume the structure as drawn. Like-named read-outs stand apart in the source and are kept apart here.

Test: Solubility testing in FaSSIF, FeSSIF and SGF (37°C, HPLC of filtrate)
Type: physicochemical
Details: for pH after 2 h: pH of the 2-hour filtrate; for solubility at 0.5 h / solubility at 2 h: thermodynamic from solid, 37°C; for solubility at 0.5 h: read-out: Solubility (mg/mL) 0.5 h; for solubility at 2 h: read-out: Solubility (mg/mL) 2 h
Experimental: Preparation of FaSSIF stock solution with pH buffer: Approximately 621 mg of NaCl, approximately 345 mg of NaH2PO4, and approximately 41.9 mg of NaOH are weighed into a 100 mL volumetric flask, and dissolved in water to approximately 5 cm below the mark. After cooling and pH adjustment, the resulting mixture is diluted to volume with water, and mixed thoroughly with shaking.
FeSSIF stock solution: Approximately 866 mg of glacial acetic acid, approximately 406 mg of NaOH, and approximately 1184 mg of NaCl are weighed into a 100 mL volumetric flask, and dissolved in water to approximately 5 cm below the mark. After cooling and pH adjustment, the resulting mixture is diluted to volume with water, and mixed thoroughly with shaking.
SGF solution: Approximately 202 mg of NaCl and approximately 321 mg of pepsin are weighed into a 100 mL volumetric flask, followed by addition of 700 µL of HCl, and dissolved in water to approximately 5 cm below the mark. After cooling, the resulting mixture is diluted to volume with water, and mixed thoroughly with shaking.
(§1) FaSSIF solution: FaSSIF stock solution is transferred to a 100 mL volumetric flask, followed by addition of approximately 225 mg of FaSSIF powder, and dissolved in FaSSIF stock solution to approximately 5 cm below the mark. After cooling, the resulting mixture is diluted to volume with FaSSIF stock solution, mixed thoroughly with shaking, and allowed to stand for 2 hours before use.
as §1, with “FeSSIF” for “FaSSIF”, “1122” for “225”, “solution, and” for “solution,”, “shaking.” for “shaking, and allowed to stand for 2 hours before use.”
Approximately 20 mg of sample is weighed into a 4 mL vial, followed by addition of 4 mL of different solvents (FaSSIF, FeSSIF, SGF). After the vial is equipped with a magnetic stir bar, the mixture is stirred at 37°C for 2 hours, during which samples are taken at 0.5 hours and 2 hours. After filtration, the sample concentration in the filtrate is determined by HPLC. The pH of the 2-hour filtrate and the crystal form of the remaining solid are also measured.

Structure (SMILES): COc1cc(Nc2ccc3ncc(N4CCOCC4)nc3c2C#N)ccc1OCc1ccc(C)nc1 [Compound 1, 6-((3-methoxy-4-((6-methylpyridin-3-yl)methoxy)phenyl)amino)-3-morpholinoquinoxaline-5-carbonitrile]
- solubility in aqueous media (background statement): poorly soluble
- pH after 2 h (FaSSIF): 6.58
- pH after 2 h (FeSSIF): 5.02
- pH after 2 h (SGF): 1.28
- solubility at 0.5 h (simulated gastric fluid, SGF): 0.699 mg/mL (≈ 1450 µM)
- solubility at 2 h (simulated gastric fluid, SGF): 0.524 mg/mL (≈ 1090 µM)
- solubility at 0.5 h (FaSSIF): 0.00026 mg/mL (≈ 0.539 µM)
- solubility at 2 h (FaSSIF): 0.00026 mg/mL (≈ 0.539 µM)
- solubility at 0.5 h (FeSSIF): 0.00313 mg/mL (≈ 6.49 µM)
- solubility at 2 h (FeSSIF): 0.00293 mg/mL (≈ 6.07 µM)
